Laboratory results: PubChem BioAssay (NCI)
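Tested at 5 concentrations; 48 h exposure; 96-well plates; endpoints linearly interpolated, else capped at highest concentration. GI50 is the concentration that inhibits growth by half. TGI is the concentration that stops growth completely.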

Columns and labels:
Test in all cases: NCI anticancer screen, dose series, 48 h; in the data active means GI50 below about 0.43 µM; inactive means the rest
[1] = tested on: CAKI-1 renal
[2] = tested on: RXF 393 renal
[3] = tested on: PC-3 prostate
[4] = tested on: KM12 colon
[5] = tested on: HOP-92 NSCLC
[6] = tested on: SK-MEL-28 melanoma
[7] = tested on: COLO 205 colon
[8] = tested on: MALME-3M melanoma
[9] = tested on: CCRF-CEM leukemia
[10] = tested on: SF-268 CNS
[11] = tested on: SR leukemia
[12] = tested on: A498 renal
[13] = tested on: SN12C renal
[14] = tested on: ACHN renal
[15] = tested on: DU-145 prostate
[16] = tested on: MDA-MB-435
[17] = tested on: K-562 leukemia
[18] = tested on: IGROV1 ovarian
[19] = tested on: SW-620 colon
[20] = tested on: SF-295 CNS
[21] = tested on: OVCAR-4 ovarian
[22] = tested on: SNB-75 CNS
[23] = tested on: BT-549 breast
[24] = tested on: A549 NSCLC
[25] = tested on: 786-0 renal
[26] = tested on: UACC-257 melanoma
[27] = tested on: HT29 colon
[28] = tested on: MCF7 breast
[29] = tested on: TK-10 renal
[30] = tested on: NCI-H23 lung
[31] = tested on: M14 melanoma
[32] = tested on: LOX IMVI melanoma
[33] = tested on: UO-31 renal
[34] = tested on: NCI-H226 lung
[35] = tested on: HCT-15 colon
[36] = tested on: NCI/ADR-RES ovarian
[37] = tested on: U251 CNS
[38] = tested on: T-47D breast
[39] = tested on: EKVX NSCLC
[40] = tested on: SF-539 CNS
[41] = tested on: RPMI-8226 leukemia
[42] = tested on: SK-MEL-5 melanoma
[43] = tested on: SNB-19 CNS
[44] = tested on: SK-OV-3 ovarian
[45] = tested on: HCC-2998 colon
[46] = tested on: HL-60(TB) leukemia
[47] = tested on: OVCAR-5 ovarian
[48] = tested on: HCT-116 colon
[49] = tested on: NCI-H522 lung
[50] = tested on: MDA-MB-231 breast
[51] = tested on: UACC-62 melanoma
[52] = tested on: HOP-62 NSCLC
[53] = tested on: OVCAR-8 ovarian
[54] = tested on: NCI-H460 lung
[55] = tested on: MOLT-4 leukemia
[56] = tested on: HS 578T breast
[57] = tested on: SK-MEL-2 melanoma

Oc1ccc(CSc2nnc(-c3cnccn3)o2)c2cccnc12
530 nM: TGI [42]
15700 nM: TGI [51]
4720 nM: TGI [26]
> 29600 nM: TGI [34]
7220 nM: TGI [12]
> 41000 nM: TGI [2]
> 100000 nM: TGI [1] | TGI [3] | TGI [4] | TGI [6] | TGI [9] | TGI [10] | TGI [11] | TGI [13] | TGI [14] | TGI [15] | TGI [16] | TGI [17] | TGI [18] | TGI [19] | TGI [20] | TGI [21] | TGI [22] | TGI [24] | TGI [25] | TGI [27] | TGI [29] | TGI [30] | TGI [32] | TGI [35] | TGI [36] | TGI [37] | TGI [38] | TGI [39] | TGI [40] | TGI [41] | TGI [43] | TGI [45] | TGI [47] | TGI [48] | TGI [49] | TGI [50] | TGI [52] | TGI [53] | TGI [54] | TGI [55] | TGI [56]
> 85200 nM: TGI [31]
2190 nM: TGI [8]
998 nM: TGI [57]
> 23700 nM: TGI [44]
> 32200 nM: TGI [33]
11100 nM: TGI [7]
8560 nM: TGI [23]
active: GI50 [3] 335 nM | GI50 [5] 202 nM | GI50 [8] 283 nM | GI50 [11] 395 nM | GI50 [13] 317 nM | GI50 [16] 359 nM | GI50 [17] 363 nM | GI50 [20] 364 nM | GI50 [22] 332 nM | GI50 [23] 283 nM | GI50 [24] 404 nM | GI50 [26] 407 nM | GI50 [28] 305 nM | GI50 [30] 371 nM | GI50 [32] 383 nM | GI50 [33] 426 nM | GI50 [35] 385 nM | GI50 [37] 370 nM | GI50 [38] 379 nM | GI50 [40] 419 nM | GI50 [41] 395 nM | GI50 [42] 229 nM | GI50 [43] 390 nM | GI50 [46] 410 nM | GI50 [48] 334 nM | GI50 [49] 415 nM | GI50 [53] 381 nM | GI50 [54] 336 nM | GI50 [56] 340 nM | GI50 [57] 314 nM
inactive: GI50 [1] 605 nM | GI50 [2] 522 nM | GI50 [4] 638 nM | GI50 [6] 711 nM | GI50 [7] 3220 nM | GI50 [9] 536 nM | GI50 [10] 453 nM | GI50 [12] 2220 nM | GI50 [14] 432 nM | GI50 [15] 472 nM | GI50 [18] 812 nM | GI50 [19] 445 nM | GI50 [21] 643 nM | GI50 [25] 590 nM | GI50 [27] 4000 nM | GI50 [29] 3070 nM | GI50 [31] 475 nM | GI50 [34] 1750 nM | GI50 [36] 1890 nM | GI50 [39] 505 nM | GI50 [44] 700 nM | GI50 [45] 697 nM | GI50 [47] 1420 nM | GI50 [50] 840 nM | GI50 [51] 517 nM | GI50 [52] 449 nM | GI50 [55] 488 nM
592 nM: TGI [5]

Oc1ccc(-c2nnc(SCc3ccc(O)c4ncccc34)o2)cc1
9390 nM: TGI [38]
6440 nM: TGI [33]
7590 nM: TGI [52]
6190 nM: TGI [46]
11300 nM: TGI [39]
747 nM: TGI [5]
10600 nM: TGI [20]
6910 nM: TGI [57]
> 22800 nM: TGI [42]
7100 nM: TGI [51]
9550 nM: TGI [25]
11600 nM: TGI [30]
> 38500 nM: TGI [13]
11400 nM: TGI [7]
13200 nM: TGI [18]
> 22300 nM: TGI [56]
26300 nM: TGI [48]
5090 nM: TGI [54]
7490 nM: TGI [12]
34300 nM: TGI [2]
35300 nM: TGI [10]
38200 nM: TGI [43]
10100 nM: TGI [14]
8840 nM: TGI [1]
17600 nM: TGI [8]
7840 nM: TGI [29]
13700 nM: TGI [37]
> 40000 nM: TGI [53]
inactive: GI50 [1] 2260 nM | GI50 [2] 1430 nM | GI50 [3] 584 nM | GI50 [4] 1560 nM | GI50 [6] 2080 nM | GI50 [7] 3060 nM | GI50 [8] 1960 nM | GI50 [9] 833 nM | GI50 [10] 658 nM | GI50 [11] 1100 nM | GI50 [12] 2370 nM | GI50 [14] 1080 nM | GI50 [15] 582 nM | GI50 [18] 2230 nM | GI50 [19] 680 nM | GI50 [20] 978 nM | GI50 [21] 3410 nM | GI50 [22] 898 nM | GI50 [23] 444 nM | GI50 [24] 839 nM | GI50 [25] 2640 nM | GI50 [26] 2530 nM | GI50 [27] 3570 nM | GI50 [28] 721 nM | GI50 [29] 2250 nM | GI50 [30] 527 nM | GI50 [31] 544 nM | GI50 [33] 1350 nM | GI50 [34] 3130 nM | GI50 [35] 510 nM | GI50 [36] 1540 nM | GI50 [38] 2430 nM | GI50 [39] 2630 nM | GI50 [40] 666 nM | GI50 [41] 544 nM | GI50 [42] 854 nM | GI50 [43] 450 nM | GI50 [44] 1770 nM | GI50 [45] 3220 nM | GI50 [46] 1390 nM | GI50 [47] 3330 nM | GI50 [50] 1960 nM | GI50 [51] 2430 nM | GI50 [52] 543 nM | GI50 [53] 440 nM | GI50 [55] 1260 nM | GI50 [57] 587 nM
6540 nM: TGI [44]
8400 nM: TGI [22]
> 31100 nM: TGI [24]
28900 nM: TGI [15]
21200 nM: TGI [23]
active: GI50 [5] 219 nM | GI50 [13] 417 nM | GI50 [16] 418 nM | GI50 [17] 418 nM | GI50 [32] 406 nM | GI50 [37] 386 nM | GI50 [48] 379 nM | GI50 [49] 402 nM | GI50 [54] 364 nM | GI50 [56] 388 nM
> 68800 nM: TGI [45]
> 73700 nM: TGI [36]
14700 nM: TGI [50]
7890 nM: TGI [26]
20500 nM: TGI [49]
> 100000 nM: TGI [3] | TGI [4] | TGI [6] | TGI [9] | TGI [11] | TGI [16] | TGI [17] | TGI [19] | TGI [21] | TGI [27] | TGI [28] | TGI [34] | TGI [35] | TGI [41] | TGI [47] | TGI [55]
15000 nM: TGI [40]
3880 nM: TGI [31]
11900 nM: TGI [32]
